Target: T1, SIRT1 (Homo sapiens, UniProt Q96EB6)
T1 sequence (Q96EB6 1-747): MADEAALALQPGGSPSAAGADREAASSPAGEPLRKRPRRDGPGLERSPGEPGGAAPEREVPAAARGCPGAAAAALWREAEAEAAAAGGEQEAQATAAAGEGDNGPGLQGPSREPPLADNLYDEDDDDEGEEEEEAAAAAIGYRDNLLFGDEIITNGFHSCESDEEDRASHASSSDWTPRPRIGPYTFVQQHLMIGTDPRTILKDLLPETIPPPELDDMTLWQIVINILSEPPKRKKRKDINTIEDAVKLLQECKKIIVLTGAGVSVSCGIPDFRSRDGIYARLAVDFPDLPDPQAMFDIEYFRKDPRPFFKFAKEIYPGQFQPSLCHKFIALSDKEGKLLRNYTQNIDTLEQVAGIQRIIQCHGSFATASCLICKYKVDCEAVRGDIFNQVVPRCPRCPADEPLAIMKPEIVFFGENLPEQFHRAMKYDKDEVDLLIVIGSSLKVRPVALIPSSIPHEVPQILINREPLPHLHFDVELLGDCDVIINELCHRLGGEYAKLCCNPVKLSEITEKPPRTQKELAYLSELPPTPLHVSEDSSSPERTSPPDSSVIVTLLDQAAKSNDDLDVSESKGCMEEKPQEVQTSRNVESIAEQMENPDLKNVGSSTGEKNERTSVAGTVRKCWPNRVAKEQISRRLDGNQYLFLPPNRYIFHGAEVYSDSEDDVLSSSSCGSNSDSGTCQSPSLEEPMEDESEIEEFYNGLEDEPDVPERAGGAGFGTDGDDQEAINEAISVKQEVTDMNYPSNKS
Test: Trp mass spectrometry assay (SIRT1 activation)
Format: biochemical
Details: Trp peptide substrate; for Tryp AVG EC1.5 (μM): concentration of test compound that results in 150% activation of SIRT1; for Emax: percent maximum fold activation of SIRT1, read-out: Tryp % Fold Act
In short: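 N-His-tagged SIRT1 (10 nM), expressed in E. coli, was incubated with 0.5 μM Ac-RHKK(Ac)W-NH2 peptide and 120 μM NAD+ for 25 min at 25 °C in HEPES pH 7.5 with […]. The reaction was stopped with formic acid and O-acetyl-ADP-ribose or deacetylated peptide was quantified by mass spectrometry. Results are given as EC1.5 and percent maximal activation relative to DMSO control.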

SMILES	Tryp AVG EC1.5 (μM)	Emax
Cc1noc(C)c1-c1ccc2c(n1)N(C(=O)Nc1cnccn1)[C@H]1CCN2C1 [Example 413]	C (EC1.5>25 μM)	< 150%
Cn1nccc1-c1ccc2c(n1)N(C(=O)Nc1cnccn1)[C@H]1CCN2C1 [Example 414]	B (EC1.5 1-25 μM)	≥ 150%
CS(=O)(=O)c1cccc(-c2ccc3c(n2)N(C(=O)Nc2cnccn2)[C@H]2CCN3C2)c1 [Example 415]	A (EC1.5<1 μM)	≥ 150%
CS(=O)(=O)Nc1cccc(-c2ccc3c(n2)N(C(=O)Nc2cnccn2)[C@H]2CCN3C2)c1 [Example 418]	B (EC1.5 1-25 μM)	≥ 150%
O=C(Nc1ccncn1)N1c2nc(N3CCCNCC3)ccc2N2CCC[C@H]1C2 [Example 420]	C (EC1.5>25 μM)	< 150%
O=C(Nc1ccncc1F)N1c2nc(-c3cccc(Cl)c3)ccc2N2CCC[C@H]1C2 [Example 421]	A (EC1.5<1 μM)	≥ 150%
O=C(Nc1ccncc1)N1c2nc(-c3ccnc(N4CC[C@H](F)C4)c3)ccc2N2CC[C@H]1C2 [Example 422]	A (EC1.5<1 μM)	≥ 150%
COc1cc(NC(=O)N2c3nc(-c4ccnc(N5CC[C@@H](F)C5)c4)ccc3N3CC[C@H]2C3)ncn1 [Example 424]	B (EC1.5 1-25 μM)	≥ 150%
O=C(Nc1ccc(F)cn1)N1c2nc(-c3ccnc(N4CCC(F)(F)C4)c3)ccc2N2CC[C@H]1C2 [Example 425]	A (EC1.5<1 μM)	≥ 150%
N#Cc1ccccc1-c1ccc2c(n1)N(C(=O)Nc1cccnn1)[C@H]1CCCN2C1 [Example 426]	B (EC1.5 1-25 μM)	≥ 150%
O=C(CCCC[C@@H]1SCC2NC(=O)NC21)NCCCCCC(=O)NCc1ccc(NC(=O)N2c3nc(-c4cccc(C(F)(F)F)c4)ccc3N3CC[C@H]2C3)cc1 (stereo partly shown) [Example 428]	A (EC1.5<1 μM)	≥ 150%
NCc1ccc(NC(=O)N2c3nc(-c4cccc(C(F)(F)F)c4)ccc3N3CC[C@H]2C3)cc1 [Example 429]	B (EC1.5 1-25 μM)	≥ 150%
O=C(CCCC[C@@H]1SCC2NC(=O)NC21)NCCCCCC(=O)NCc1ccc(NC(=O)N2c3nc(-c4cccc(C(F)(F)F)c4)ccc3N3CCC[C@H]2C3)cc1 (stereo partly shown) [Example 430]	A (EC1.5<1 μM)	≥ 150%
CS(=O)(=O)N1CCCN(c2ccc3c(n2)N(C(=O)Nc2ccncn2)[C@H]2CCCN3C2)CC1 [Example 433]	B (EC1.5 1-25 μM)	≥ 150%
CC(=O)N1CCCN(c2ccc3c(n2)N(C(=O)Nc2ccncn2)[C@H]2CCCN3C2)CC1 [Example 434]	C (EC1.5>25 μM)	< 150%
O=C(Nc1cnccn1)N1c2nc(-c3ccnc(N4CC[C@H](F)C4)c3)ccc2N2CC[C@H]1C2 [Example 436]	A (EC1.5<1 μM)	≥ 150%
COc1cc(NC(=O)N2c3nc(-c4ccnc(N5CC[C@H](F)C5)c4)ccc3N3CC[C@H]2C3)ncn1 [Example 437]	B (EC1.5 1-25 μM)	≥ 150%
N#Cc1ccccc1-c1ccc2c(n1)N(C(=O)Nc1cccnc1)[C@H]1CCCN2C1 [Example 438]	B (EC1.5 1-25 μM)	≥ 150%
N#Cc1ccccc1-c1ccc2c(n1)N(C(=O)Nc1cncc(F)c1)[C@H]1CCCN2C1 [Example 439]	B (EC1.5 1-25 μM)	≥ 150%
COc1cc(NC(=O)N2c3nc(-c4ccccc4C#N)ccc3N3CCC[C@H]2C3)ncn1 [Example 440]	C (EC1.5>25 μM)	< 150%
O=C(Nc1cnccn1)N1c2nc(-c3cccc(Cl)c3)cc(O)c2N2CC[C@H]1C2 [Example 443]	B (EC1.5 1-25 μM)	≥ 150%
CC(C)(C)OC(=O)NCc1ccc(NC(=O)N2c3nc(-c4cccc(C(F)(F)F)c4)ccc3N3CCC[C@H]2C3)cc1 [Example 445]	A (EC1.5<1 μM)	≥ 150%
COC(=O)N1CCCN(c2ccc3c(n2)N(C(=O)Nc2ccncn2)[C@H]2CCCN3C2)CC1 [Example 446]	B (EC1.5 1-25 μM)	≥ 150%
CC(C)N1CCCN(c2ccc3c(n2)N(C(=O)Nc2ccncn2)[C@H]2CCCN3C2)CC1 [Example 447]	C (EC1.5>25 μM)	< 150%
O=C(Nc1ccccn1)N1c2nc(-c3ccnc(N4CC[C@@H](F)C4)c3)ccc2N2CC[C@H]1C2 [Example 448]	B (EC1.5 1-25 μM)	≥ 150%
N#Cc1ccccc1-c1ccc2c(n1)N(C(=O)Nc1ccccn1)[C@H]1CCCN2C1 [Example 449]	B (EC1.5 1-25 μM)	≥ 150%
N#Cc1ccccc1-c1ccc2c(n1)N(C(=O)Nc1ccncn1)[C@H]1CCCN2C1 [Example 451]	B (EC1.5 1-25 μM)	≥ 150%
O=C(Nc1cccnc1)N1c2nc(-c3cccnc3)ccc2N2CCC[C@H]1C2 [Example 455]	B (EC1.5 1-25 μM)	≥ 150%
O=C(Nc1cncc(F)c1)N1c2nc(-c3cccc(C(F)(F)F)c3)ccc2S(=O)(=O)N2CC[C@H]1C2 [Example 460]	B (EC1.5 1-25 μM)	≥ 150%

Continued, values first:

Tryp AVG EC1.5 (μM)	Emax	SMILES
A (EC1.5<1 μM)	≥ 150%	O=C(Nc1cncc(F)c1)N1c2nc(-c3cncc(C(F)(F)F)c3)ccc2N2CCC[C@H]1C2 [Example 411]
A (EC1.5<1 μM)	≥ 150%	O=C(Nc1cccnn1)N1c2nc(-c3cncc(C(F)(F)F)c3)ccc2N2CCC[C@H]1C2 [Example 412]
C (EC1.5>25 μM)	< 150%	O=C(Nc1cnccn1)N1c2nc(-c3cc(F)c(F)c(F)c3)ccc2N2CC[C@H]1C2 [Example 416]
A (EC1.5<1 μM)	≥ 150%	O=C(Nc1cnccn1)N1c2nc(-c3cncc(Cl)c3)ccc2N2CCC[C@H]1C2 [Example 417]
A (EC1.5<1 μM)	≥ 150%	N#Cc1cc(-c2ccc3c(n2)N(C(=O)Nc2cnccn2)[C@H]2CCN3C2)ccc1F [Example 419]
A (EC1.5<1 μM)	≥ 150%	O=C(Nc1cnccn1)N1c2nc(-c3ccnc(N4CCC(F)(F)C4)c3)ccc2N2CC[C@H]1C2 [Example 423]
A (EC1.5<1 μM)	≥ 150%	Cc1nc(NC(=O)N2c3nc(-c4cncc(C(F)(F)F)c4)ccc3N3CCC[C@H]2C3)sc1C [Example 427]
A (EC1.5<1 μM)	≥ 150%	O=C(Nc1ccc(F)cn1)N1c2nc(-c3cncc(F)c3)ccc2N2CCC[C@H]1C2 [Example 431]
B (EC1.5 1-25 μM)	≥ 150%	O=C(Nc1cnccn1)N1c2nc(-c3cncc(F)c3)ccc2N2CCC[C@H]1C2 [Example 432]
A (EC1.5<1 μM)	≥ 150%	O=C(Nc1cnccn1)N1c2nc(-c3ccc(Cl)c(C(F)(F)F)c3)ccc2N2CC[C@H]1C2 [Example 435]
B (EC1.5 1-25 μM)	≥ 150%	O=C(Nc1ccccn1)N1c2nc(-c3cccnc3)ccc2N2CCC[C@H]1C2 [Example 441]
B (EC1.5 1-25 μM)	≥ 150%	COc1cc(NC(=O)N2c3nc(-c4cccnc4)ccc3N3CCC[C@H]2C3)ncn1 [Example 442]
B (EC1.5 1-25 μM)	≥ 150%	N#Cc1ccccc1-c1ccc2c(n1)N(C(=O)Nc1cnccn1)[C@H]1CCCN2C1 [Example 450]
A (EC1.5<1 μM)	≥ 150%	O=C(Nc1cnccn1)N1c2nc(-c3cncc(C(F)(F)F)c3)ccc2N2CCC[C@H]1C2 [Example 452]
B (EC1.5 1-25 μM)	≥ 150%	O=C(Nc1cncc(F)c1)N1c2nc(-c3cccnc3)ccc2N2CCC[C@H]1C2 [Example 453]
B (EC1.5 1-25 μM)	≥ 150%	O=C(Nc1cnccn1)N1c2nc(-c3cccnc3)ccc2N2CCC[C@H]1C2 [Example 454]
B (EC1.5 1-25 μM)	≥ 150%	O=C(Nc1ccncn1)N1c2nc(-c3cccnc3)ccc2N2CCC[C@H]1C2 [Example 456]
B (EC1.5 1-25 μM)	–	O=C(Nc1cccnn1)N1c2nc(-c3cccnc3)ccc2N2CCC[C@H]1C2 [Example 457]
B (EC1.5 1-25 μM)	≥ 150%	CN(C)c1ccc(-c2ccc3c(n2)N(C(=O)Nc2cnccn2)[C@H]2CCN3C2)cn1 [Example 458]
A (EC1.5<1 μM)	≥ 150%	N#Cc1cncc(-c2ccc3c(n2)N(C(=O)Nc2cnccn2)[C@H]2CCN3C2)c1 [Example 459]

Source: patent US9765075B2, “Substituted bridged urea analogs as sirtuin modulators” (GLAXOSMITHKLINE LLC, priority 2013, dated 2017)
